Data: PubChem BioAssay AID248 (DTP/NCI, 2004)
Values joined by “and” are separate entries in the source; they are usually repeats but may differ in a detail not shown here. Equal values may be shown once. Inconclusive results and toxic doses are left out. Rule as the data show it: active = T/C of 150% or more; inactive = T/C below 125%.

System: L1210 leukemia ip in BDF1 mice, survival T/C
Experiment: NCI In Vivo Anticancer Drug Screen. Data for tumor model L1210 Leukemia (intraperitoneal) in B6D2F1 (BDF1) mice
Conditions: endpoint: mean survival time, higher = longer survival
In short: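 Transplantable tumor model; survival measured in treated vs vehicle control mice. Value = treated/control.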

[1] = dose: 100.0 mg/kg/injection, schedule: Q01DX001 (ip), vehicle: saline
[2] = dose: 100.0 mg/kg/injection, schedule: Q04DX003 (ip), vehicle: Klucel (hydroxypropylcellulose) (HPC)
[3] = dose: 200.0 mg/kg/injection, schedule: Q01DX001 (ip), vehicle: saline
[4] = dose: 200.0 mg/kg/injection, schedule: Q04DX003 (ip), vehicle: Klucel (hydroxypropylcellulose) (HPC)
[5] = dose: 400.0 mg/kg/injection, schedule: Q01DX001 (ip), vehicle: saline
[6] = dose: 400.0 mg/kg/injection, schedule: Q04DX003 (ip), vehicle: Klucel (hydroxypropylcellulose) (HPC)
[7] = dose: 100.0 mg/kg/injection, schedule: Q04DX002 (ip), vehicle: Klucel (hydroxypropylcellulose) (HPC)
[8] = dose: 200.0 mg/kg/injection, schedule: Q04DX002 (ip), vehicle: Klucel (hydroxypropylcellulose) (HPC)
[9] = dose: 100.0 mg/kg/injection, schedule: Q01DX009 (ip), vehicle: Klucel (hydroxypropylcellulose) (HPC)
[10] = dose: 200.0 mg/kg/injection, schedule: Q01DX009 (ip), vehicle: Klucel (hydroxypropylcellulose) (HPC)
[11] = dose: 400.0 mg/kg/injection, schedule: Q01DX009 (ip), vehicle: Klucel (hydroxypropylcellulose) (HPC)
[12] = dose: 100.0 mg/kg/injection, schedule: Q04DX003 (ip), vehicle: saline
[13] = dose: 100.0 mg/kg/injection, schedule: Q01DX001 (ip), vehicle: Klucel (hydroxypropylcellulose) (HPC)
[14] = dose: 200.0 mg/kg/injection, schedule: Q01DX001 (ip), vehicle: Klucel (hydroxypropylcellulose) (HPC)

Measured: T/C

CCCCCC#CCCCCl
inactive: dose: 50.0 mg/kg/injection, schedule: Q01DX001 (ip), vehicle: carboxymethylcellulose (CMC) 101 % of control | dose: 50.0 mg/kg/injection, schedule: Q01DX009 (ip), vehicle: carboxymethylcellulose (CMC) 95 % of control and 97 % of control | dose: 50.0 mg/kg/injection, schedule: Q04DX003 (ip), vehicle: carboxymethylcellulose (CMC) 98 % of control | dose: 100.0 mg/kg/injection, schedule: Q01DX001 (ip), vehicle: carboxymethylcellulose (CMC) 96 % of control | dose: 100.0 mg/kg/injection, schedule: Q01DX009 (ip), vehicle: carboxymethylcellulose (CMC) 93 % of control and 95 % of control | dose: 100.0 mg/kg/injection, schedule: Q04DX002 (ip), vehicle: carboxymethylcellulose (CMC) 95 % of control and 97 % of control | dose: 100.0 mg/kg/injection, schedule: Q04DX003 (ip), vehicle: carboxymethylcellulose (CMC) 102 % of control | dose: 200.0 mg/kg/injection, schedule: Q01DX001 (ip), vehicle: carboxymethylcellulose (CMC) 91 % of control | dose: 200.0 mg/kg/injection, schedule: Q01DX009 (ip), vehicle: carboxymethylcellulose (CMC) 95 % of control | dose: 200.0 mg/kg/injection, schedule: Q04DX002 (ip), vehicle: carboxymethylcellulose (CMC) 100 % of control and 107 % of control | dose: 200.0 mg/kg/injection, schedule: Q04DX003 (ip), vehicle: carboxymethylcellulose (CMC) 94 % of control

CC(C)C(Sc1nc(N)nc2nc[nH]c12)C(=O)O (stereo not given)
inactive: [1] 98 % of control | dose: 100.0 mg/kg/injection, schedule: Q01DX009 (ip), vehicle: saline sonified 94 % of control | [2] 96 % of control | [3] 96 % of control | dose: 200.0 mg/kg/injection, schedule: Q01DX009 (ip), vehicle: saline sonified 106 % of control | [4] 100 % of control | [5] 102 % of control | dose: 400.0 mg/kg/injection, schedule: Q01DX009 (ip), vehicle: saline sonified 100 % of control | [6] 98 % of control

CCOC(=O)CC(SP(=S)(Oc1ccccc1)Oc1ccccc1)C(=O)OCC (stereo not given)
inactive: dose: 100.0 mg/kg/injection, schedule: Q04DX002 (sc), vehicle: olive oil, sesame oil, peanut oil 100 % of control | dose: 200.0 mg/kg/injection, schedule: Q04DX002 (sc), vehicle: olive oil, sesame oil, peanut oil 103 % of control | dose: 400.0 mg/kg/injection, schedule: Q04DX002 (sc), vehicle: olive oil, sesame oil, peanut oil 93 % of control

O=C1OC2(c3ccc(O)cc3Oc3cc(O)ccc32)C2C3CCC(O3)C12 (stereo not given)
inactive: [7] 100 % of control | [8] 118 % of control

COc1ccc(C(=O)N/N=C/c2cccc3ccccc23)cc1
inactive: [9] 105 % of control | [10] 103 % of control | [11] 108 % of control

COC(=O)c1cc(OC)nc(OC)c1
inactive: [2] 102 % of control | [4] 110 % of control | [6] 96 % of control

CN(C)CCN(C)CCN(C)CCN(C)C
inactive: dose: 100.0 mg/kg/injection, schedule: Q01DX009 (ip), vehicle: saline 95 % of control | dose: 200.0 mg/kg/injection, schedule: Q01DX009 (ip), vehicle: saline 100 % of control

O=C(Cc1ccccc1)Nc1cccc2ccccc12
inactive: [9] 101 % of control | [10] 95 % of control | [11] 91 % of control

O=C(Nc1ccccc1)OC1CCCC2CCCCC21 (stereo not given)
inactive: [2] 96 % of control | [4] 96 % of control | [6] 93 % of control

C#CCN(Cc1ccccc1)C(=O)Nc1cccc(Cl)c1
inactive: dose: 100.0 mg/kg/injection, schedule: Q04DX003 (ip), vehicle: other 106 % of control | dose: 200.0 mg/kg/injection, schedule: Q04DX003 (ip), vehicle: other 98 % of control | dose: 400.0 mg/kg/injection, schedule: Q04DX003 (ip), vehicle: other 96 % of control

Cc1cc2c(=O)[nH]c(N)nc2nc1C
inactive: dose: 100.0 mg/kg/injection, schedule: Q01DX Z (ip), vehicle: methylcellulose (MC) 95 % of control | dose: 200.0 mg/kg/injection, schedule: Q01DX Z (ip), vehicle: methylcellulose (MC) 94 % of control

CC(C)(C)C1CCC(N=C(N)CS)CC1 (stereo not given)
inactive: dose: 1.5 mg/kg/injection, schedule: Q01DX001 (ip), vehicle: carboxymethylcellulose (CMC) 98 % of control | dose: 3.0 mg/kg/injection, schedule: Q01DX001 (ip), vehicle: carboxymethylcellulose (CMC) 98 % of control | dose: 6.0 mg/kg/injection, schedule: Q01DX001 (ip), vehicle: carboxymethylcellulose (CMC) 95 % of control

CC1(C)C2(SCCS2)C(C)(C)C12SCCS2
inactive: [9] 96 % of control | [10] 95 % of control | [11] 104 % of control

O=C(O)/C=C\c1c[nH]c2nccnc12
inactive: dose: 25.0 mg/kg/injection, schedule: Q01DX009 (ip), vehicle: saline 101 % of control | dose: 25.0 mg/kg/injection, schedule: Q04DX003 (ip), vehicle: saline 117 % of control | dose: 50.0 mg/kg/injection, schedule: Q01DX009 (ip), vehicle: saline 88 % of control | dose: 50.0 mg/kg/injection, schedule: Q04DX003 (ip), vehicle: saline 115 % of control | [12] 103 % of control and 106 % of control

Cc1nc2cccc3ccc4cc5ccccc5c1c4c32
inactive: dose: 100.0 mg/kg/injection, schedule: Q04DX003 (ip), vehicle: saline with Tween-80 89 % of control | dose: 200.0 mg/kg/injection, schedule: Q04DX003 (ip), vehicle: saline with Tween-80 93 % of control

CCC(O)CN (stereo not given)
inactive: [12] 96 % of control and 107 % of control | dose: 200.0 mg/kg/injection, schedule: Q04DX003 (ip), vehicle: saline 96 % of control | dose: 400.0 mg/kg/injection, schedule: Q04DX003 (ip), vehicle: saline 95 % of control

CC1(C)CC(=O)C2C(C1)Nc1ccccc1NC2c1ccccc1[N+](=O)[O-] (stereo not given)
inactive: [7] 103 % of control and 110 % of control | [8] 98 % of control and 92 % of control | dose: 400.0 mg/kg/injection, schedule: Q04DX002 (ip), vehicle: Klucel (hydroxypropylcellulose) (HPC) 95 % of control

CCN(CC)CCCC(C)Nc1ccnc2c1ccc1ccccc12 (stereo not given)
inactive: dose: 50.0 mg/kg/injection, schedule: Q01DX001 (ip), vehicle: saline 98 % of control | [1] 101 % of control | [3] 106 % of control | [5] 112 % of control

N=C([Se])c1c(N)ncn1C1OC(CO)C(O)C1O (stereo not given)
inactive: dose: 12.5 mg/kg/injection, schedule: Q01DX005 (ip), vehicle: saline 98 % of control | dose: 25.0 mg/kg/injection, schedule: Q01DX005 (ip), vehicle: saline 94 % of control | dose: 50.0 mg/kg/injection, schedule: Q01DX005 (ip), vehicle: saline 96 % of control

CCOC(=O)c1[nH]c(COC(C)=O)c(CCC(=O)O)c1C
inactive: dose: 25.0 mg/kg/injection, schedule: Q04DX003 (ip), vehicle: Klucel (hydroxypropylcellulose) (HPC) 101 % of control | dose: 50.0 mg/kg/injection, schedule: Q04DX003 (ip), vehicle: Klucel (hydroxypropylcellulose) (HPC) 95 % of control | [13] 101 % of control | [2] 98 % of control | [14] 93 % of control | dose: 400.0 mg/kg/injection, schedule: Q01DX001 (ip), vehicle: Klucel (hydroxypropylcellulose) (HPC) 88 % of control

COc1ccccc1-n1c(O)c(N=Nc2ccc(C)cc2)c(=O)n(-c2ccc(Cl)cc2)c1=S
inactive: [13] 106 % of control | [14] 100 % of control

O=C1c2ccccc2C(=O)c2c(Nc3ccc(S(=O)(=O)N(CCO)CCO)cc3)ccc(O)c21
inactive: [1] 97 % of control | [3] 100 % of control
